From PMC8161687, “Cytosine-5 methylation-directed construction of a Au nanoparticle-based nanosensor for simultaneous detection of multiple DNA methyltransferases at the single-molecule level” (Chemical Science, 2020)

Biological target: T1, CpG methyltransferase (M.SssI MTase) (Spiroplasma monobiae, UniProt P15840)
T1 construct: gene sssIM
Test: coupled GlaI / RNase HII cleavage, Cy5 release from AuNP, single-molecule TIRF counting
Assay type: biochemical
Details: 600 nM hairpin DNA HS1; 320 μM SAM; 100 U/mL M.SssI; NEBuffer 2; 37 °C, 2 h; coupled assay; free nucleoside added, covalent mechanism only cited

T1 sequence (P15840 whole entry): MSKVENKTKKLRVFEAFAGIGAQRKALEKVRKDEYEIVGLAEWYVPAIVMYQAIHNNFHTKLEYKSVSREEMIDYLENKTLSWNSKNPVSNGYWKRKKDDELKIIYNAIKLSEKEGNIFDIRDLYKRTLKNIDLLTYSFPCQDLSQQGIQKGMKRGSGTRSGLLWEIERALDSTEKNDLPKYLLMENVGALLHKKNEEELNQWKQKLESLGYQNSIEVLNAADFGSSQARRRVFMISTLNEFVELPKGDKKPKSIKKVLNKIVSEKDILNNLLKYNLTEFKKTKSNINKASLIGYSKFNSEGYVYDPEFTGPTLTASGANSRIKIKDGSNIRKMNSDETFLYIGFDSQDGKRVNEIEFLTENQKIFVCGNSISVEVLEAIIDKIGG

IC50: 640 nM
Compound: Nc1ncn([C@H]2C[C@H](O)[C@@H](CO)O2)c(=O)n1 [decitabine]
